Results on two compounds are retold here after patent publication US20110118269A1, “FUSED PYRAZINE COMPOUNDS AS THEIR SALTS, USEFUL FOR THE TREATMENT OF DEGENERATIVE AND INFLAMMATORY DISEASES” (priority 2009, published 2011).

The IC50 is the concentration at which inhibition is half-maximal.

One experiment concerns MMP1 expression by SFs. The experiment in a line: MMP assay proof of principle: MMP1 produced by complex trigger activated SFs. It is filed as cell-based. Conditions: 48 hrs, read-out: IC50, reduction of MMP1 expression by SFs. Here is the method: A 384-well format ELISA for measurement of MMP1 is developed. Various primary antibodies are tested, as well as various ELISA protocols. The following protocol is developed and validated to measure MMP1 levels in SF supernatant in 384 well plates: white Lumitrac 600 384 well plates (Greiner) are coated with 2 μg/mL anti-MMP1 antibody MAB1346 (Chemicon). The antibody is diluted in buffer 40 (1.21 g Tris base (Sigma), 0.58 g NaCl (Calbiochem) and 5 mL 10% NaN3 (Sigma) in 1 L milliQ water and adjusted to pH 8.5). After overnight incubation at 4° C., plates are washed with PBS (80 g NaCl, 2g KCl (Sigma), 11.5 g Na2HPO4.7H2O and 2 g KH2PO4 in 10 L milliQ; pH 7.4) and blocked with 100 μL/well Casein buffer (2% Casein (VWR International) in PBS). Next day, casein buffer is removed from ELISA plates and replaced by 50 μL/well EC buffer (4 g casein, 2.13 g Na2HPO4 (Sigma), 2 g bovine albumin (Sigma), 0.69 g NaH2PO4.H2O (Sigma), 0.5 g CHAPS (Roche), 23.3 g NaCl, 4 mL 0.5 M EDTA pH 8 (Invitrogen), 5 mL 10% NaN3 in 1 L milliQ and adjusted to pH 7.0). 0.25 mM DTT (Sigma) is added to the thawed samples plates. After removal of the EC buffer, 20 μL of sample is transferred to the ELISA plates. […] Readout is performed on the Luminoscan Ascent Luminometer (Labsystems) with an integration time of 200 msec or with an Envision reader (Perkin Elmer). […]

The conditions of experiment [1]: after 24 months treatment; cited from earlier work.

In the case of `C[C@@H]1C[C@H]2[C@@H]3CCC4=CC(=O)C=C[C@]4(C)[C@@]3(F)[C@@H](O)C[C@]2(C)[C@@]1(O)C(=O)CO` [dexamethasone], in the experiment on MMP1 expression by SFs, the concentration for half-maximal inhibition (IC50) was roughly 1 nM.
With `CN(Cc1cnc2nc(N)nc(N)c2n1)c1ccc(C(=O)N[C@@H](CCC(=O)O)C(=O)O)cc1` [methotrexate], the “patients achieving an ACR50 score” value in experiment [1] was 30%.
